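Following 48 hours of exposure in 96-well plates, responses at five concentrations were used to interpolate endpoints linearly. Here, GI50 denotes the concentration required for 50% inhibition of growth. At the TGI there is no net growth.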
The molecules below were run on SR leukemia (assay: NCI tumour cell line growth inhibition, 48 h).

Row | SMILES | TGI | GI50
1 | O=C(O)Cc1cc(O)c(CC(=O)O)cc1O | > 100 µM | –
2 | C=CC1(C)CCC2=C(CCC3C(C)(C(=O)OC)CCCC23C)C1=O (centres undefined) | 42 µM | –
3 | O=S1(=O)N(CCNc2nccc(-c3c(-c4cccc(O)c4)nc4sccn34)n2)CCN1Cc1ccccc1 | > 50 µM | 9760 nM
4 | COc1cc(/C=C2\CCCC3=C2NC(C)=NC3c2cc(OC)c(OC)c(OC)c2)cc(OC)c1OC (centres undefined) | 7.66 µM | 436 nM
5 | O=C(N/N=C\c1cccc(O)c1)c1ccncc1 | > 100 µM | –
6 | Cc1cc(O)c(C(C)(C)C)cc1Sc1cc(C(C)(C)C)c(O)cc1C | 7.23 µM | 1890 nM
7 | O=C1NN(C2=NNC3(C(=O)N2)c2ccccc2-c2ccccc23)C(c2ccccc2)=N/C1=C/c1ccc(O)cc1 | > 150 µg/mL | 59.7 µg/mL
8 | CCOC(=O)C(O)(NC(=O)c1ccc(F)cc1)C(F)(F)F (centres undefined) | > 100 µM | –
9 | Cc1nc2ccccc2n1C(=O)c1c(F)c(F)c(F)c(F)c1F | > 100 µM | –
10 | Clc1ccccc1/C=C/c1cscn1 | > 100 µM | –

Each molecule was assayed on SF-539 CNS (assay: NCI tumour cell line growth inhibition, 48 h).

Row | SMILES | TGI | GI50
11 | N#Cc1c(Cl)c2cc([N+](=O)[O-])ccc2n2c1nc1ccccc12 | 4.28 µM | –
12 | O=S1(=O)N(CCNc2nccc(-c3c(-c4cccc(O)c4)nc4sccn34)n2)CCN1Cc1ccccc1 | > 50 µM | 7140 nM
13 | C=C(C)C(=O)OC1CCC2(C)C(CCC3C2CCC2(C)C(c4ccc(=O)oc4)CC4OC432)C1 (centres undefined) | 27.9 µM | –
14 | COc1cc(/C=C2\CCCC3=C2NC(C)=NC3c2cc(OC)c(OC)c(OC)c2)cc(OC)c1OC (centres undefined) | > 100 µM | 1550 nM
15 | Cc1cc(O)c(C(C)(C)C)cc1Sc1cc(C(C)(C)C)c(O)cc1C | 9 µM | 2770 nM
16 | O=C1CCCCC2N(C(c3ccccc3)c3ccccc3)CC[C@@]12c1ccccc1 (mixture of isomers) | > 10 µM | –
17 | O=C1NN(C2=NNC3(C(=O)N2)c2ccccc2-c2ccccc23)C(c2ccccc2)=N/C1=C/c1ccc(O)cc1 | 87.5 µg/mL | 32.7 µg/mL
18 | CCOC(=O)C(O)(NC(=O)c1ccc(F)cc1)C(F)(F)F (centres undefined) | > 100 µM | –
19 | Cc1nc2ccccc2n1C(=O)c1c(F)c(F)c(F)c(F)c1F | 29.5 µM | –
20 | Clc1ccccc1/C=C/c1cscn1 | > 100 µM | –

The molecules below were run on DMS 114 small cell lung (assay: NCI tumour cell line growth inhibition, 48 h).

Row | SMILES | TGI
21 | C=CC1(C)CCC2=C(CCC3C(C)(C(=O)OC)CCCC23C)C1=O (centres undefined) | 32.7 µM
22 | C=C(C)C(=O)OC1CCC2(C)C(CCC3C2CCC2(C)C(c4ccc(=O)oc4)CC4OC432)C1 (centres undefined) | 9.11 µM
23 | O=C1CCCCC2N(C(c3ccccc3)c3ccccc3)CC[C@@]12c1ccccc1 (mixture of isomers) | > 10 µM
24 | Clc1ccccc1/C=C/c1cscn1 | > 100 µM

Each molecule was assayed on A549 NSCLC (assay: NCI tumour cell line growth inhibition, 48 h).

Row | SMILES | TGI | GI50
25 | O=C(O)Cc1cc(O)c(CC(=O)O)cc1O | > 100 µM | –
26 | N#Cc1c(Cl)c2cc([N+](=O)[O-])ccc2n2c1nc1ccccc12 | > 100 µM | –
27 | O=S1(=O)N(CCNc2nccc(-c3c(-c4cccc(O)c4)nc4sccn34)n2)CCN1Cc1ccccc1 | > 50 µM | 12.5 µM
28 | C=C(C)C(=O)OC1CCC2(C)C(CCC3C2CCC2(C)C(c4ccc(=O)oc4)CC4OC432)C1 (centres undefined) | 25.4 µM | –
29 | O=C(N/N=C\c1cccc(O)c1)c1ccncc1 | > 100 µM | –
30 | Cc1cc(O)c(C(C)(C)C)cc1Sc1cc(C(C)(C)C)c(O)cc1C | 10.3 µM | 3.1 µM
31 | O=C1CCCCC2N(C(c3ccccc3)c3ccccc3)CC[C@@]12c1ccccc1 (mixture of isomers) | > 10 µM | –
32 | O=C1NN(C2=NNC3(C(=O)N2)c2ccccc2-c2ccccc23)C(c2ccccc2)=N/C1=C/c1ccc(O)cc1 | > 150 µg/mL | 74.7 µg/mL
33 | CCOC(=O)C(O)(NC(=O)c1ccc(F)cc1)C(F)(F)F (centres undefined) | > 100 µM | –
34 | Cc1nc2ccccc2n1C(=O)c1c(F)c(F)c(F)c(F)c1F | > 100 µM | –

Each molecule was assayed on MDA-MB-231 breast (assay: NCI tumour cell line growth inhibition, 48 h).

Row | SMILES | TGI | GI50
35 | O=C(O)Cc1cc(O)c(CC(=O)O)cc1O | > 100 µM | –
36 | N#Cc1c(Cl)c2cc([N+](=O)[O-])ccc2n2c1nc1ccccc12 | 0.858 µM | –
37 | O=S1(=O)N(CCNc2nccc(-c3c(-c4cccc(O)c4)nc4sccn34)n2)CCN1Cc1ccccc1 | 26.4 µM | 3.06 µM
38 | COc1cc(/C=C2\CCCC3=C2NC(C)=NC3c2cc(OC)c(OC)c(OC)c2)cc(OC)c1OC (centres undefined) | > 100 µM | 3.01 µM
39 | O=C(N/N=C\c1cccc(O)c1)c1ccncc1 | > 100 µM | –
40 | Cc1cc(O)c(C(C)(C)C)cc1Sc1cc(C(C)(C)C)c(O)cc1C | 5.06 µM | 2.16 µM
41 | O=C1NN(C2=NNC3(C(=O)N2)c2ccccc2-c2ccccc23)C(c2ccccc2)=N/C1=C/c1ccc(O)cc1 | 71.7 µg/mL | 26.2 µg/mL
42 | CCOC(=O)C(O)(NC(=O)c1ccc(F)cc1)C(F)(F)F (centres undefined) | > 100 µM | –
43 | Cc1nc2ccccc2n1C(=O)c1c(F)c(F)c(F)c(F)c1F | 32 µM | –

These molecules were tested on KM20L2 colon (assay: NCI tumour cell line growth inhibition, 48 h).

Row | SMILES | TGI
44 | C=CC1(C)CCC2=C(CCC3C(C)(C(=O)OC)CCCC23C)C1=O (centres undefined) | 40.3 µM
45 | C=C(C)C(=O)OC1CCC2(C)C(CCC3C2CCC2(C)C(c4ccc(=O)oc4)CC4OC432)C1 (centres undefined) | 40.4 µM
46 | O=C1CCCCC2N(C(c3ccccc3)c3ccccc3)CC[C@@]12c1ccccc1 (mixture of isomers) | > 10 µM

Each molecule was assayed on DLD-1 colon (assay: NCI tumour cell line growth inhibition, 48 h).

Row | SMILES | TGI
47 | C=CC1(C)CCC2=C(CCC3C(C)(C(=O)OC)CCCC23C)C1=O (centres undefined) | 36.5 µM
48 | C=C(C)C(=O)OC1CCC2(C)C(CCC3C2CCC2(C)C(c4ccc(=O)oc4)CC4OC432)C1 (centres undefined) | 7.38 µM
49 | Clc1ccccc1/C=C/c1cscn1 | > 100 µM

The molecules below were run on HOP-62 NSCLC (assay: NCI tumour cell line growth inhibition, 48 h).

Row | SMILES | TGI | GI50
50 | O=C(O)Cc1cc(O)c(CC(=O)O)cc1O | > 100 µM | –
51 | N#Cc1c(Cl)c2cc([N+](=O)[O-])ccc2n2c1nc1ccccc12 | 47.4 µM | –
52 | C=CC1(C)CCC2=C(CCC3C(C)(C(=O)OC)CCCC23C)C1=O (centres undefined) | 31.3 µM | –
53 | O=S1(=O)N(CCNc2nccc(-c3c(-c4cccc(O)c4)nc4sccn34)n2)CCN1Cc1ccccc1 | > 50 µM | 24.6 µM
54 | C=C(C)C(=O)OC1CCC2(C)C(CCC3C2CCC2(C)C(c4ccc(=O)oc4)CC4OC432)C1 (centres undefined) | 10.5 µM | –
55 | O=C(N/N=C\c1cccc(O)c1)c1ccncc1 | > 100 µM | –
56 | Cc1cc(O)c(C(C)(C)C)cc1Sc1cc(C(C)(C)C)c(O)cc1C | 4.74 µM | 2.11 µM
57 | O=C1NN(C2=NNC3(C(=O)N2)c2ccccc2-c2ccccc23)C(c2ccccc2)=N/C1=C/c1ccc(O)cc1 | 138 µg/mL | 39.9 µg/mL
58 | CCOC(=O)C(O)(NC(=O)c1ccc(F)cc1)C(F)(F)F (centres undefined) | > 100 µM | –
59 | Cc1nc2ccccc2n1C(=O)c1c(F)c(F)c(F)c(F)c1F | 68.3 µM | –
60 | Clc1ccccc1/C=C/c1cscn1 | > 100 µM | –

Each molecule was assayed on SK-MEL-2 melanoma (assay: NCI tumour cell line growth inhibition, 48 h).

Row | SMILES | TGI | GI50
61 | O=C(O)Cc1cc(O)c(CC(=O)O)cc1O | > 100 µM | –
62 | N#Cc1c(Cl)c2cc([N+](=O)[O-])ccc2n2c1nc1ccccc12 | 36.4 µM | –
63 | C=CC1(C)CCC2=C(CCC3C(C)(C(=O)OC)CCCC23C)C1=O (centres undefined) | 33.9 µM | –
64 | O=S1(=O)N(CCNc2nccc(-c3c(-c4cccc(O)c4)nc4sccn34)n2)CCN1Cc1ccccc1 | 4.59 µM | 1550 nM
65 | C=C(C)C(=O)OC1CCC2(C)C(CCC3C2CCC2(C)C(c4ccc(=O)oc4)CC4OC432)C1 (centres undefined) | 10.2 µM | –
66 | O=C(N/N=C\c1cccc(O)c1)c1ccncc1 | > 100 µM | –
67 | Cc1cc(O)c(C(C)(C)C)cc1Sc1cc(C(C)(C)C)c(O)cc1C | 4.51 µM | 2460 nM
68 | CCOC(=O)C(O)(NC(=O)c1ccc(F)cc1)C(F)(F)F (centres undefined) | > 100 µM | –
69 | Cc1nc2ccccc2n1C(=O)c1c(F)c(F)c(F)c(F)c1F | 46.6 µM | –
70 | Clc1ccccc1/C=C/c1cscn1 | > 100 µM | –

What follows are molecules tested on SK-MEL-5 melanoma (assay: NCI tumour cell line growth inhibition, 48 h).

Row | SMILES | TGI | GI50
71 | O=C(O)Cc1cc(O)c(CC(=O)O)cc1O | > 100 µM | –
72 | N#Cc1c(Cl)c2cc([N+](=O)[O-])ccc2n2c1nc1ccccc12 | 44.4 µM | –
73 | C=CC1(C)CCC2=C(CCC3C(C)(C(=O)OC)CCCC23C)C1=O (centres undefined) | 30.3 µM | –
74 | O=S1(=O)N(CCNc2nccc(-c3c(-c4cccc(O)c4)nc4sccn34)n2)CCN1Cc1ccccc1 | 9.79 µM | 3040 nM
75 | C=C(C)C(=O)OC1CCC2(C)C(CCC3C2CCC2(C)C(c4ccc(=O)oc4)CC4OC432)C1 (centres undefined) | 19.1 µM | –
76 | Cc1cc(O)c(C(C)(C)C)cc1Sc1cc(C(C)(C)C)c(O)cc1C | 3.02 µM | 1580 nM
77 | O=C1CCCCC2N(C(c3ccccc3)c3ccccc3)CC[C@@]12c1ccccc1 (mixture of isomers) | > 10 µM | –
78 | O=C1NN(C2=NNC3(C(=O)N2)c2ccccc2-c2ccccc23)C(c2ccccc2)=N/C1=C/c1ccc(O)cc1 | > 150 µg/mL | 39.2 µg/mL
79 | CCOC(=O)C(O)(NC(=O)c1ccc(F)cc1)C(F)(F)F (centres undefined) | > 100 µM | –
80 | Cc1nc2ccccc2n1C(=O)c1c(F)c(F)c(F)c(F)c1F | 26.9 µM | –

The molecules below were run on M19-MEL melanoma (assay: NCI tumour cell line growth inhibition, 48 h).

Row | SMILES | TGI
81 | C=CC1(C)CCC2=C(CCC3C(C)(C(=O)OC)CCCC23C)C1=O (centres undefined) | 36 µM
82 | C=C(C)C(=O)OC1CCC2(C)C(CCC3C2CCC2(C)C(c4ccc(=O)oc4)CC4OC432)C1 (centres undefined) | 10.7 µM
83 | O=C1CCCCC2N(C(c3ccccc3)c3ccccc3)CC[C@@]12c1ccccc1 (mixture of isomers) | > 10 µM
84 | Clc1ccccc1/C=C/c1cscn1 | > 100 µM

The molecules below were run on MCF7 breast (assay: NCI tumour cell line growth inhibition, 48 h).

Row | SMILES | TGI | GI50
85 | N#Cc1c(Cl)c2cc([N+](=O)[O-])ccc2n2c1nc1ccccc12 | 4.56 µM | –
86 | O=S1(=O)N(CCNc2nccc(-c3c(-c4cccc(O)c4)nc4sccn34)n2)CCN1Cc1ccccc1 | 34.6 µM | 4220 nM
87 | C=C(C)C(=O)OC1CCC2(C)C(CCC3C2CCC2(C)C(c4ccc(=O)oc4)CC4OC432)C1 (centres undefined) | 13.2 µM | –
88 | COc1cc(/C=C2\CCCC3=C2NC(C)=NC3c2cc(OC)c(OC)c(OC)c2)cc(OC)c1OC (centres undefined) | > 100 µM | 1450 nM
89 | Cc1cc(O)c(C(C)(C)C)cc1Sc1cc(C(C)(C)C)c(O)cc1C | 9 µM | 2610 nM
90 | O=C1NN(C2=NNC3(C(=O)N2)c2ccccc2-c2ccccc23)C(c2ccccc2)=N/C1=C/c1ccc(O)cc1 | > 150 µg/mL | 39.4 µg/mL
91 | CCOC(=O)C(O)(NC(=O)c1ccc(F)cc1)C(F)(F)F (centres undefined) | > 100 µM | –
92 | Cc1nc2ccccc2n1C(=O)c1c(F)c(F)c(F)c(F)c1F | > 100 µM | –
